In general, IC50 refers to the concentration that inhibits the measured activity by half.

Where only a bound is given, the exact number is not on record here.

For the test, the target named is T1, recombinant glucosyltransferase domain of C. difficile Toxin B/TcdB (Clostridioides difficile, UniProt P18177).
T1 construct: 6-His (C); purchased R&D Systems 6246-GT
T1 sequence (P18177 1-543): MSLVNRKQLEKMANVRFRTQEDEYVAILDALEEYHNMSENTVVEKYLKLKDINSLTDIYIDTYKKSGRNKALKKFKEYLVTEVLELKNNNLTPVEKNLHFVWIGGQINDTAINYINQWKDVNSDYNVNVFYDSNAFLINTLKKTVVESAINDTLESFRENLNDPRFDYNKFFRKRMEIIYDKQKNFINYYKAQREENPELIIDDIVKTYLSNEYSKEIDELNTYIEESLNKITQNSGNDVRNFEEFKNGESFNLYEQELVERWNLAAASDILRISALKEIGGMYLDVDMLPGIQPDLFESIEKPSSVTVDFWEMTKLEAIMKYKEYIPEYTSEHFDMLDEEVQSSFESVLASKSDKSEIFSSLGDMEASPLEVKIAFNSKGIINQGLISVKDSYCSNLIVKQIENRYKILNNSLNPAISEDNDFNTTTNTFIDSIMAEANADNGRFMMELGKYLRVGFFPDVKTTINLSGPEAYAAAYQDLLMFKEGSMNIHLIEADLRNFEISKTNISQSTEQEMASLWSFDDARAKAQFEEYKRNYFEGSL
Kind of test: biochemical.
Consider `Cc1ccc(NC(=O)c2ccc(CN3C(=O)c4ccc(Cl)cc4NC(=O)[C@H]3CCN(C)C)cc2)nc1` [Example 10f, (R)-4-((8-chloro-3-(2-(dimethylamino)ethyl)-2,5-dioxo-2,3-dihydro-1H-benzo[e][1,4]diazepin-4(5H)-yl)methyl)-N-(5-methylpyridin-2-yl)benzamide], for which the 50% inhibitory concentration (IC50) was in the range of 10000 to 35000 nM. Next, `O=C(O)c1ccc(CN2C(=O)c3ccc(Cl)cc3NC(=O)[C@H]2Cc2ccccn2)cc1` [Example 1a, (R)-4-((8-Chloro-2,5-dioxo-3-(pyridin-2-ylmethyl)-2,3-dihydro-1H-benzo[e][1,4]diazepin-4(5H)-yl)methyl)benzoic Acid]: 100 to 999 nM. The value for `Cc1ccc(NC(=O)c2ccc(CN3C(=O)c4ccc(NC(=O)c5cc(C)on5)cc4NC(=O)[C@H]3C)cc2)nc1` [Example 18c, (R)-5-methyl-N-(3-methyl-4-(4-((5-methylpyridin-2-yl)carbamoyl)benzyl)-2,5-dioxo-2,3,4,5-tetrahydro-1H-benzo[e][1,4]diazepin-8-yl)isoxazole-3-carboxamide] was 1000 to 10000 nM. As to `COc1cnc(NC(=O)c2ccc(CN3C(=O)c4ccc(Cl)cc4NC(=O)[C@H]3Cc3ccccn3)cc2)nc1` [Example 5a, (R)-4-((8-chloro-2,5-dioxo-3-(pyridin-2-ylmethyl)-2,3-dihydro-1H-benzo[e][1,4]diazepin-4(5H)-yl)methyl)-N-(5-methoxypyrimidin-2-yl)benzamide], the IC50 was below 100 nM. Consider `O=C(Nc1ccc(CN2C(=O)c3ccc(Cl)cc3NC(=O)[C@H]2Cc2ccccn2)cc1)c1ccccn1` [Example 26b], for which the IC50 was below 100 nM. On to `COc1cnc(NC(=O)c2ccc(CN3C(=O)c4ccc(Cl)cc4NC(=O)[C@H]3C)cc2)nc1` [Example 4be, (R)-4-((8-chloro-3-methyl-2,5-dioxo-2,3-dihydro-1H-benzo[e][1,4]diazepin-4(5H)-yl)methyl)-N-(5-methoxypyrimidin-2-yl)benzamide], for which the IC50 was below 100 nM. Next, `COc1ccc(NC(=O)c2ccc(CN3C(=O)c4ccc(Cl)cc4NC(=O)[C@H]3Cc3cccnc3)cc2)nc1` [Example 5g, (R)-4-((8-chloro-2,5-dioxo-3-(pyridin-3-ylmethyl)-2,3-dihydro-1H-benzo[e][1,4]diazepin-4(5H)-yl)methyl)-N-(5-methoxypyridin-2-yl)benzamide]: below 100 nM; `COc1cc(CN2C(=O)c3ccc(Cl)cc3NC(=O)[C@H]2Cc2ccccn2)ccc1C(=O)Nc1ccc(F)cn1` [Example 5aq, (R)-4-((8-chloro-2,5-dioxo-3-(pyridin-2-ylmethyl)-2,3-dihydro-1H-benzo[e][1,4]diazepin-4(5H)-yl)methyl)-N-(5-fluoropyridin-2-yl)-2-methoxybenzamide]: below 100 nM; `NC(=O)c1ccc(CN2C(=O)c3ccc(Cl)cc3NC(=O)[C@H]2Cc2ccccn2)cc1` [Example 13d]: 100 to 999 nM. Consider `Cc1ccc(S(=O)(=O)NC(=O)c2ccc(CN3C(=O)c4ccc(Cl)cc4NC(=O)[C@H]3Cc3cccnc3)cc2)cc1` [Example 15e, (R)-4-((8-chloro-2,5-dioxo-3-(pyridin-3-ylmethyl)-2,3-dihydro-1H-benzo[e][1,4]diazepin-4(5H)-yl)methyl)-N-tosylbenzamide], for which the concentration for half-maximal inhibition (IC50) fell in the range of 1000 to 10000 nM. Next, `COCCC(=O)Nc1cc(CN2C(=O)c3ccc(Cl)cc3NC(=O)[C@H]2Cc2ccccn2)ccc1C(=O)O` [Example 22e]: 1000 to 10000 nM. Consider `O=C(Nc1cc(Cl)ccn1)c1ccc(CN2C(=O)c3ccc(Cl)cc3NC(=O)[C@H]2Cc2cccnc2)cc1` [Example 4r, (R)-4-((8-chloro-2,5-dioxo-3-(pyridin-3-ylmethyl)-2,3-dihydro-1H-benzo[e][1,4]diazepin-4(5H)-yl)methyl)-N-(4-chloropyridin-2-yl)benzamide], for which the half-inhibitory concentration (IC50) was below 100 nM. For the molecule `O=C(Nc1ccccn1)c1ccc(CN2C(=O)c3ccc(Cl)cc3NC(=O)[C@@H]2Cc2cccnc2)cc1` [Example 35m], the IC50 fell in the range of 100 to 999 nM. Turning to `C[C@@H]1C(=O)Nc2cc(Cl)ccc2C(=O)N1Cc1ccc(C(=O)Nc2ccc(N3CCN(C)CC3)cn2)cc1` [Example 4bh, (R)-4-((8-chloro-3-methyl-2,5-dioxo-2,3-dihydro-1H-benzo[e][1,4]diazepin-4(5H)-yl)methyl)-N-(5-(4-methylpiperazin-1-yl)pyridin-2-yl)benzamide], the 50% inhibitory concentration (IC50) lay within 100 to 999 nM. Next, `CS(=O)(=O)c1ccc(NC(=O)c2ccc(CN3C(=O)c4ccc(Cl)cc4NC(=O)[C@H]3Cc3ccccn3)cc2Cl)nc1` [Example 5av, (R)-2-chloro-4-((8-chloro-2,5-dioxo-3-(pyridin-2-ylmethyl)-2,3-dihydro-1H-benzo[e][1,4]diazepin-4(5H)-yl)methyl)-N-(5-(methylsulfonyl)pyridin-2-yl)benzamide]: below 100 nM. The value for `O=C(Nc1ccc(CN2C(=O)c3ccc(Cl)cc3NC(=O)[C@H]2Cc2ccccn2)cc1)c1nccs1` [Example 27e] was 100 to 999 nM; that for `CN(C)CC(=O)Nc1cc(CN2C(=O)c3ccc(Cl)cc3NC(=O)[C@H]2Cc2ccccn2)ccc1C(=O)O` [Example 22d] was 1000 to 10000 nM. The value for `CN1CCN(CC(=O)Nc2cc(CN3C(=O)c4ccc(Cl)cc4NC(=O)[C@H]3Cc3ccccn3)ccc2C(=O)O)CC1` [Example 22j] was 1000 to 10000 nM; that for `N#Cc1cccc(C[C@@H]2C(=O)Nc3cc(Cl)ccc3C(=O)N2Cc2ccc(C(=O)O)cc2)c1` [Example 3n] was 1000 to 10000 nM; that for `Cc1ccc(NC(=O)c2ccc(CN3C(=O)c4ccc(Cl)cc4NC(=O)[C@H]3Cc3ccccn3)cc2)nc1` [Example 4x, (R)-4-((8-chloro-2,5-dioxo-3-(pyridin-2-ylmethyl)-2,3-dihydro-1H-benzo[e][1,4]diazepin-4(5H)-yl)methyl)-N-(5-methylpyridin-2-yl)benzamide] was below 100 nM. With `Cn1cnc(C(=O)c2ccc(CN3C(=O)c4ccc(Cl)cc4NC(=O)[C@H]3Cc3ccccn3)cc2)c1` [Example 31d], the IC50 is 100 to 999 nM. The value for `O=C(Nc1ccccn1)c1ccc(CN2C(=O)c3ccc(Cl)cc3NC(=O)[C@H]2Cc2ccccc2F)cc1` [Example 4an, (R)-4-((8-chloro-3-(2-fluorobenzyl)-2,5-dioxo-2,3-dihydro-1H-benzo[e][1,4]diazepin-4(5H)-yl)methyl)-N-(pyridin-2-yl)benzamide] was below 100 nM. In the case of `CN(C)C(=O)c1ccc(CN2C(=O)c3ccc(Cl)cc3NC(=O)[C@H]2Cc2cccnc2)cc1` [Example 13b, (R)-4-((8-chloro-2,5-dioxo-3-(pyridin-3-ylmethyl)-2,3-dihydro-1H-benzo[e][1,4]diazepin-4(5H)-yl)methyl)-N,N-dimethylbenzamide], the IC50 fell in the range of 10000 to 35000 nM. In the case of `CN(C)CCC(=O)Nc1cc(CN2C(=O)c3ccc(Cl)cc3NC(=O)[C@H]2Cc2ccccn2)ccc1C(=O)O` [Example 22k], the IC50 is 100 to 999 nM. `O=C(Nc1ccccn1)c1ccc(CN2C(=O)c3ccc(Cl)cc3NC(=O)[C@H]2Cc2ccncc2)cc1` [Example 4u, (R)-4-((8-chloro-2,5-dioxo-3-(pyridin-4-ylmethyl)-2,3-dihydro-1H-benzo[e][1,4]diazepin-4(5H)-yl)methyl)-N-(pyridin-2-yl)benzamide]: the IC50 was 100 to 999 nM.

These data come from patent US10669242B2 (priority 2016, dated 2020).
